Like-named read-outs stand apart in the source and are kept apart here.
How the values were obtained:
[1] = system: human ovarian cancer cell line ES-2; type: in vivo; conditions: regional delivery
Description: (§1) Experiments were repeated in triplicate.
as §1, §1, §1, §1

[2] = human, in vivo, ip; cited from earlier work
CT-26-luc cells = test: Antitumor activity in colon cancer syngeneic mice model (CT-26-luc i.p., BLI and survival); type: in vivo, BALB/c mice
Procedure: Tumor cell growth was determined by measuring bioluminescence images (BLI) using IVIS system. Treatments were initiated when the tumor dissemination (judged by luminescence activity) reached baseline. […] Survival of these animals was recorded.
Five-week-old female BALB/c mice were purchased from the National Laboratory Animal Breeding and Research Center of Taipei and maintained in the oncology animal facility of Taipei Veterans General Hospital, Taipei, Taiwan. The animals were used in compliance with the institutional animal health care regulations, and all of the animal experimental procedures were approved by the Institutional Animal Care and Use Committee.
Exact dosing volume was calculated using body weight. Control group was given 100 ul of 0.9% Sodium Chloride Injection.
BALB/c mice (6 weeks) were injected with 1×10^5 CT-26-luc cells in 250 ul opti-MEM by i.p. on Day 0 (D0). After 4 days (D4), tumor cell growth was determined by measuring luminescence activity using IVIS system (baseline). Each group Bioluminescence images (BLI) was normalized by average BLI of total mice before treatment. […] Animals were monitored individually till death for survival evaluation.
The mice were imaged with the IVIS-50 system (Xenogen, Alameda, Calif.).
Overall survival was defined as the time from the date of tumor implantation to the date of death and is presented as the Kaplan-Meier survival curve.

recurrent ovarian tumor = conditions: HIPEC, 10 mg/kg
Procedure: Depicted are inflow and outflow ports and anal temperature probe to monitor internal temperature of mouse during perfusion. Mice were perfused for 1 h at the rate of 3 mL/min with Taxol® (10 mg/kg). […] Experiments were repeated in triplicate.

[3] = system: cancer stem cells of ES-2 tumors; test: Cancer stem cell analysis of treated tumors (tumor sphere, side population, RT-PCR); type: in vivo, SCID mice
Procedure: (8A) Tumor sphere-forming ability of treated tumor. Mouse was implanted with ES-2 cells (2×10^6/mouse) at day 1 and was treated at day 5, day 8, and day 11 at indicated dosage. Tumors were retrieved at day 14 for each indicated group. Tumors were dissociated into single cell suspension and cultured in an ultralow dish for 10 days. […] Representative figures are shown. (8B) Summary of tumor sphere formation (mean±SD). (8C) Flow cytometry analysis of Hoechst 33342-stained cells and identification of side population cells. Percentage of side population cells are shown. (D-G) RT-PCR analysis for the expressions of stemness marker (8D), genes for epithelial-mesenchymal transition (EMT) driver and expression of epithelial or mesenchymal phenotype (8E), genes for tumor angiogenesis (8F), and genes for multidrug resistance (8G). (8H) CXCR4/CXCL12 axis in stem cells maintenance. […] Experiments were repeated in triplicate.

[4] = system: metastatic non-small lung cancer; conditions: P=0.271; cited from earlier work
lung metastases = test: Lung metastases model (tail vein injection of tumor cells); type: in vivo, SCID mice
Procedure: (7B) Control of lung metastases. Mouse was induced lung metastases by tail vein injection of tumor cells at d1.
Animals were used in compliance with institutional animal health care regulations, and all animal experimental procedures were approved by the Institutional Animal Care and Use Committee. […] Groups of mice were treated. A 2-factor factorial design was implemented with factor 1 (systematic delivery versus regional delivery) and factor 2 (free drug versus nanomedicine). […] The dosing schedule for each paired drugs (free drug and nanomedicine) was given on maximal tolerated dose based on preliminary study. Lung metastases were induced by tail-vein injection, while liver metastases were by splenic injection, and retroperitoneal lymphatic metastases were induced by intra-uterine injection of tumor cells.

[5] = system: human ovarian cancer cell line ES-2; test: Flow cytometry apoptosis assay of tumor after treatment; type: in vivo, SCID mice; conditions: systematic delivery
Description: A single intraperitoneal injection of human ovarian cancer cell line ES-2 (2×10^5 cells per mouse, ATCC no. CRL-1978) at d0 into 5-week-old SCID mice (CB.17 scid/scid) was commenced to generate tumor, which was confirmed via abdominal distension and malignant ascites in 3 weeks. […] Animals were used in compliance with institutional animal health care regulations, and all animal experimental procedures were approved by the Institutional Animal Care and Use Committee. Tumor-bearing mice were euthanized at the endpoint when there were signs of distress, including fur ruffling, rapid respiratory rate, hunched posture, reduced activity, and progressive ascites formation. Groups of mice were treated. A 2-factor factorial design was implemented with factor 1 (systematic delivery versus regional delivery) and factor 2 (free drug versus nanomedicine). […] The dosing schedule for each paired drugs (free drug and nanomedicine) was given on maximal tolerated dose based on preliminary study.

[6] = hepatic artery infusion; cited from earlier work

With CC[C@@]1(O)C(=O)OCc2c1cc1n(c2=O)Cc2cc3c(CN(C)C)c(O)ccc3nc2-1 [topotecan] the “therapeutic efficacy (bioluminescence imaging day 14 vs day 4)” value ([1]; 10 mg/kg/mouse, day 5 and 10 (FIG. 4B)) was “some therapeutic effect”.
In the case of N.N.[Cl][Pt][Cl] [cisplatin], the “increased exposure to the peritoneal cavity as compared to the systemic compartment” value [2] is listed as 20 fold and the “therapeutic efficacy (bioluminescence imaging day 14 vs day 4)” value ([1]; 5 mg/kg/mouse, day 5 and 10 (FIG. 3B)) is listed as “some therapeutic effect”.
For COc1cccc2c1C(=O)c1c(O)c3c(c(O)c1C2=O)C[C@@](O)(C(=O)CO)C[C@@H]3O[C@H]1C[C@H](N)[C@H](O)[C@H](C)O1 [doxorubicin], the “therapeutic efficacy (bioluminescence imaging day 14 vs day 4)” value ([1]; 5 mg/kg/mouse, day 5 and 10 (FIG. 5)) was “some therapeutic effect”.
For CC(=O)O[C@H]1C(=O)[C@@]2(C)[C@H]([C@H](OC(=O)c3ccccc3)[C@]3(O)C[C@H](OC(=O)[C@H](O)[C@@H](NC(=O)c4ccccc4)c4ccccc4)C(C)=C1C3(C)C)[C@]1(OC(C)=O)CO[C@@H]1C[C@@H]2O [Taxol®, paclitaxel], the “inhibition of colon tumor growth / antitumor activity” value (CT-26-luc cells; 10 mg/kg i.p.) was “did not inhibit colon tumor growth”, the median survival day (CT-26-luc cells; 10 mg/kg i.p.) was 26 days and the survival duration (CT-26-luc cells; 10 mg/kg i.p.) was 27 days. The “inhibition of colon tumor growth” value (CT-26-luc cells; 10 mg/kg i.v.) was “did not inhibit colon tumor growth”, the median survival day (CT-26-luc cells; 10 mg/kg i.v.) was 24 days and the survival duration (CT-26-luc cells; 10 mg/kg i.v.) was 27 days. The “complications (bowel obstruction or perforation)” value (recurrent ovarian tumor) was “higher”, the “tumor control of recurrent tumor” value (recurrent ovarian tumor; perfused 1 h at 3 mL/min) was “good tumor control” and the “CXCR4/CXCL12 expression compared to control group” value ([3]; i.v. delivery) was “increased expression of CXCR4/CXCL12”. The “side population cells (Hoechst 33342)” value ([3]; regional delivery) was “increased”, the “tumor sphere (microsphere) formation of treated tumor” value ([3]; systematic (i.v.) delivery, tumors retrieved day 14, cultured 10 days) was “increased microsphere formation” and the “side population cells (Hoechst 33342)” value ([3]; systematic delivery) was “increased”. The median overall survival [4] was 11.2 months, the “control of lung metastases” value (lung metastases; regional (intrapleural) delivery) was “some therapeutic efficacy” and the “control of lung metastases” value (lung metastases; systematic delivery) was “unsatisfactory control of tumor”. For the same compound, the apoptosis of tumor [5] was 23.3%, the “therapeutic efficacy (bioluminescence imaging day 14 vs day 4)” value ([1]; 10 mg/kg/mouse, day 5, 8, 11 (FIG. 2B)) was “some efficacy” and the “therapeutic efficacy (bioluminescence imaging day 14 vs day 4)” value ([1]; 10 mg/kg/mouse, day 5, 8, 11 (FIG. 6)) was “some efficacy”.
For O=c1[nH]c(=O)n([C@H]2C[C@H](O)[C@@H](CO)O2)cc1F [floxuridine], the “higher tumor drug levels as compared to portal vein infusion” value [6] is given as 15 fold.
